Patent US9758561B2 (priority 2014, dated 2017)
Converted amounts (≈) assume the structure as drawn. Like-named read-outs stand apart in the source and are kept apart here.

How the values were obtained:
[1] = Stability testing in solution, 7 days at 40° C. (HPLC-UV); type: physicochemical; conditions: for Stability pH 4.5: pH 4.5, 7 days at 40° C. in solution; for Stability pH 7.4: pH 7.4, 7 days at 40° C. in solution
Method: After that time course, the sample was centrifuged for 20 min at 4500 rpm and 0.2 μL of the supernatant were analysed with HPLC-UV.
For determination of the amount of the remaining peptide, the peak areas of the target compound at t0 and t7 were compared, resulting in “% remaining peptide”, following the equation % remaining peptide=[(peak area peptide t7)×100]/peak area peptide t0.
The stability is expressed as “% remaining peptide”.

[2] = Solubility testing in buffer (HPLC-UV); type: physicochemical
Method: Prior to the testing of solubility and stability of a peptide batch, its purity (HPLC-UV) was determined. […] Therefore, solutions from solid samples were prepared in different buffer systems with a concentration of 10 mg/mL compound based on the previously determined % purity. HPLC-UV was performed after 2 h of gentle agitation from the supernatant, which was obtained by 20 min of centrifugation at 4500 rpm. […] This analysis also served as starting point (t0) for the stability testing.

human GLP-1 receptor = molecular target: T1, human GLP-1 receptor (Homo sapiens, UniProt P43220); assay: cAMP response of HEK-293 cells stably expressing human GLP-1 receptor (HTRF); type: cell-based; conditions: read-out: EC50 hGLP-1R
T1 construct: expressed in transfected cells; host or cells: HEK-293
Method: For preparation, cells were split into T175 culture flasks and grown overnight to near confluency in medium (DMEM/10% FBS). Medium was then removed and cells washed with PBS lacking calcium and magnesium, followed by proteinase treatment with accutase (Sigma-Aldrich cat. no. A6964). Detached cells were washed and resuspended in assay buffer (1×HBSS; 20 mM HEPES, 0.1% BSA, 2 mM IBMX) and cellular density determined. They were then diluted to 400000 cells/ml and 25 μl-aliquots dispensed into the wells of 96-well plates. For measurement, 25 μl of test compound in assay buffer was added to the wells, followed by incubation for 30 minutes at room temperature. […] Potencies of peptidic compounds at the GLP-1, glucagon and GIP receptors were determined by exposing cells expressing human glucagon receptor (hGlucagon R), human GIP receptor (hGIP-R) or human GLP-1 receptor (hGLP-1R) to the listed compounds at increasing concentrations and measuring the formed cAMP as described in Methods.

[3] = pH 4.5, target concentration 10 mg/ml, read-out: solubility pH 4.5
[4] = pH 7.4, target concentration 10 mg/ml, read-out: solubility pH 7.4

T1 sequence (P43220 24-463): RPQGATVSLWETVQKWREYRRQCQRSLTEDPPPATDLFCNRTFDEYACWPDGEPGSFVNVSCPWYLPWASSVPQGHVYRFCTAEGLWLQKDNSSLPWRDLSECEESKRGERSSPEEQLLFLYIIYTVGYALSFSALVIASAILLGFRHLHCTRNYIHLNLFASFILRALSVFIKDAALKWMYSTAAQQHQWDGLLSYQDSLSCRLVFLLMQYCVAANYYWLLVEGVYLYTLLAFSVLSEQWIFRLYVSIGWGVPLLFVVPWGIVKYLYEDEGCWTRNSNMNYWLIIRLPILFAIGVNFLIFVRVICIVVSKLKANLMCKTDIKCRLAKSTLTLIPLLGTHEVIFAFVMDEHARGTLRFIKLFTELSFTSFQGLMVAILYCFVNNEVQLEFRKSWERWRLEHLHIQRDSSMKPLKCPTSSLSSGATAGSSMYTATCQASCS

Row | Structure (SMILES) | Stability pH 4.5 [1] | Stability pH 7.4 [1] | solubility at 2 h [2, 3] | solubility at 2 h [2, 4] | EC50 (human GLP-1 receptor; Table 6) | EC50 (human GLP-1 receptor; Table 8, comparison Aib vs. Lys in position 27)
1 | CCCCCCCCCCCCCCCC(=O)N[C@@H](CCC(=O)N[C@@H](CCC(=O)NCCCC[C@H](NC(=O)[C@H](CCC(N)=O)NC(=O)[C@H](CCCCN)NC(=O)[C@H](CO)NC(=O)[C@H](CC(C)C)NC(=O)[C@H](CC(=O)O)NC(=O)[C@H](CO)NC(=O)[C@@H](NC(=O)[C@H](Cc1ccccc1)NC(=O)[C@@H](NC(=O)CNC(=O)[C@H](CCC(N)=O)NC(=O)[C@@H](CO)NC(=O)[C@@H](N)Cc1c[nH]cn1)[C@@H](C)O)[C@@H](C)O)C(=O)N[C@@H](CC(=O)O)C(=O)N[C@@H](CCC(=O)O)C(=O)N[C@@H](CCC(=O)O)C(=O)N[C@@H](C)C(=O)N[C@@H](C)C(=O)N[C@@H](CCCNC(=N)N)C(=O)N[C@@H](CC(C)C)C(=O)N[C@@H](Cc1ccccc1)C(=O)N[C@H](C(=O)N[C@@H](CCC(=O)O)C(=O)N[C@@H](Cc1c[nH]c2ccccc12)C(=O)N[C@@H](CC(C)C)C(=O)NC(C)(C)C(=O)N[C@@H](C)C(=O)N[C@H](C)C(=O)NCC(=O)N1CCC[C@H]1C(=O)N[C@@H](CO)C(=O)N[C@@H](CO)C(=O)NCC(=O)N[C@@H](C)C(=O)N1CCC[C@H]1C(=O)N1CCC[C@H]1C(=O)N1CCC[C@H]1C(=O)N[C@@H](CO)C(N)=O)[C@@H](C)CC)C(=O)O)C(=O)O [SEQ ID NO: 12, H-dSer-Q-G-T-F-T-S-D-L-S-K-Q-K(γE-γE-x53)-D-E-E-A-A-R-L-F-I-E-W-L-Aib-A-dAla-G-P-S-S-G-A-P-P-P-S-NH2] | 85.6 % remaining peptide | 90.6 % remaining peptide | 2000 µg/mL (≈ 435 µM) | > 8000 µg/mL |  | 
2 | CCCCCCCCCCCCCCCC(=O)N[C@@H](CCC(=O)N[C@@H](CCC(=O)NCCCC[C@H](NC(=O)[C@H](CCC(N)=O)NC(=O)[C@H](CCCCN)NC(=O)[C@H](CO)NC(=O)[C@H](CC(C)C)NC(=O)[C@H](CC(=O)O)NC(=O)[C@H](CO)NC(=O)[C@@H](NC(=O)[C@H](Cc1ccccc1)NC(=O)[C@@H](NC(=O)CNC(=O)[C@H](CCC(N)=O)NC(=O)[C@@H](CO)NC(=O)[C@@H](N)Cc1c[nH]cn1)[C@@H](C)O)[C@@H](C)O)C(=O)N[C@@H](CC(=O)O)C(=O)N[C@@H](CCC(=O)O)C(=O)N[C@@H](CCC(=O)O)C(=O)N[C@@H](C)C(=O)N[C@@H](C)C(=O)N[C@@H](CCCNC(=N)N)C(=O)N[C@@H](CC(C)C)C(=O)N[C@@H](Cc1ccccc1)C(=O)N[C@H](C(=O)N[C@@H](CCC(=O)O)C(=O)N[C@@H](Cc1c[nH]c2ccccc12)C(=O)N[C@@H](CC(C)C)C(=O)NC(C)(C)C(=O)N[C@@H](CCCCN)C(=O)N[C@H](C)C(=O)NCC(=O)N1CCC[C@H]1C(=O)N[C@@H](CO)C(=O)N[C@@H](CO)C(=O)NCC(=O)N[C@@H](C)C(=O)N1CCC[C@H]1C(=O)N1CCC[C@H]1C(=O)N1CCC[C@H]1C(=O)N[C@@H](CO)C(N)=O)[C@@H](C)CC)C(=O)O)C(=O)O [SEQ ID NO: 24, H-dSer-Q-G-T-F-T-S-D-L-S-K-Q-K(γE-γE-x53)-D-E-E-A-A-R-L-F-I-E-W-L-Aib-K-dAla-G-P-S-S-G-A-P-P-P-S-NH2] | 81.8 % remaining peptide | 95.4 % remaining peptide | > 8000 µg/mL | 7000 µg/mL (≈ 1500 µM) | 2.4 pM | 
3 | CCCCCCCCCCCCCCCC(=O)N[C@@H](CCC(=O)N[C@@H](CCC(=O)NCCCC[C@H](NC(=O)[C@H](CCC(N)=O)NC(=O)[C@H](CCCCN)NC(=O)[C@H](CO)NC(=O)[C@H](CC(C)C)NC(=O)[C@H](CC(=O)O)NC(=O)[C@H](CO)NC(=O)[C@@H](NC(=O)[C@H](Cc1ccccc1)NC(=O)[C@@H](NC(=O)CNC(=O)[C@H](Cc1c[nH]cn1)NC(=O)[C@@H](CO)NC(=O)[C@@H](N)Cc1c[nH]cn1)[C@@H](C)O)[C@@H](C)O)C(=O)N[C@@H](CC(=O)O)C(=O)N[C@@H](CCC(=O)O)C(=O)N[C@@H](CCC(=O)O)C(=O)N[C@@H](C)C(=O)N[C@@H](C)C(=O)N[C@@H](CCCNC(=N)N)C(=O)N[C@@H](CC(C)C)C(=O)N[C@@H](Cc1ccccc1)C(=O)N[C@H](C(=O)N[C@@H](CCC(=O)O)C(=O)N[C@@H](Cc1c[nH]c2ccccc12)C(=O)N[C@@H](CC(C)C)C(=O)NC(C)(C)C(=O)N[C@@H](CCCCN)C(=O)N[C@H](C)C(=O)NCC(=O)N1CCC[C@H]1C(=O)N[C@@H](CO)C(=O)N[C@@H](CO)C(=O)NCC(=O)N[C@@H](C)C(=O)N1CCC[C@H]1C(=O)N1CCC[C@H]1C(=O)N1CCC[C@H]1C(=O)N[C@@H](CO)C(N)=O)[C@@H](C)CC)C(=O)O)C(=O)O [SEQ ID NO: 26, H-dSer-H-G-T-F-T-S-D-L-S-K-Q-K(γE-γE-x53)-D-E-E-A-A-R-L-F-I-E-W-L-Aib-K-dAla-G-P-S-S-G-A-P-P-P-S-NH2] | 92.7 % remaining peptide | 96.6 % remaining peptide | 6800 µg/mL (≈ 1460 µM) | 6700 µg/mL (≈ 1440 µM) | 2 pM | 
4 | CCCCCCCCCCCCCCCC(=O)N[C@@H](CCC(=O)N[C@@H](CCC(=O)NCCCC[C@H](NC(=O)[C@H](CCC(N)=O)NC(=O)[C@H](CCCCN)NC(=O)[C@H](CO)NC(=O)[C@H](CC(C)C)NC(=O)[C@H](CC(=O)O)NC(=O)[C@H](CO)NC(=O)[C@@H](NC(=O)[C@H](Cc1ccccc1)NC(=O)[C@@H](NC(=O)CNC(=O)[C@H](CCC(N)=O)NC(=O)[C@H](CO)NC(=O)[C@@H](N)Cc1c[nH]cn1)[C@@H](C)O)[C@@H](C)O)C(=O)N[C@@H](CC(=O)O)C(=O)N[C@@H](CCC(=O)O)C(=O)N[C@@H](CCC(=O)O)C(=O)N[C@@H](C)C(=O)N[C@@H](C)C(=O)N[C@@H](CCCNC(=N)N)C(=O)N[C@@H](CC(C)C)C(=O)N[C@@H](Cc1ccccc1)C(=O)N[C@H](C(=O)N[C@@H](CCC(=O)O)C(=O)N[C@@H](Cc1c[nH]c2ccccc12)C(=O)N[C@@H](CC(C)C)C(=O)N[C@@H](CCCCN)C(=O)N[C@@H](C)C(=O)NCC(=O)NCC(=O)N1CCC[C@H]1C(=O)N[C@@H](CO)C(=O)N[C@@H](CO)C(=O)NCC(=O)N[C@@H](C)C(=O)N1CCC[C@H]1C(=O)N1CCC[C@H]1C(=O)N1CCC[C@H]1C(=O)N[C@@H](CO)C(N)=O)[C@@H](C)CC)C(=O)O)C(=O)O [SEQ ID NO: 33, H-S-Q-G-T-F-T-S-D-L-S-K-Q-K(γE-γE-x53)-DEEAARLFIEWLKAGGPSSGAPPPS-NH2, reference compound] |  |  |  |  |  | 1 pM
